Measured values published in patent publication US20260365670A1, “EGFR INHIBITORS AND USES THEREOF” (DIZAL (JIANGSU) PHARMACEUTICAL CO., LTD., priority 2022, published 2026).
pIC50: −log10 of the molar value. Like-named read-outs stand apart in the source and are kept apart here.

Columns and labels:
EGFR wild type = target: T1, EGFR wild type (Homo sapiens, UniProt P00533); experiment: Inhibition of EGFR wild type biochemical enzymatic activity (HTRF); details: 1 mM ATP; for pIC50: EGFR wild type, 1 h at room temperature, read-out: IC50 @WT
T1 construct: purchased Carna Bio
Method in brief: (§1)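 Kinase activity is measured by HTRF detection of biotinylated TK substrate (1 μM) phosphorylation at 1 mM ATP. Incubation lasts 1 h at room temperature before an EDTA stop, and IC50 is fitted with a four-parameter logistic model.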

EGFR L858R = target: T2, EGFR L858R (Homo sapiens, UniProt P00533, L858R); experiment: Inhibition of EGFR L858R biochemical enzymatic activity (HTRF); details: 1 mM ATP; for pIC50: 1 h at room temperature, read-out: IC50 @L858R
T2 construct: purchased Carna Bio
Method in brief: as §1

EGFR L858R/T790M = target: T3, EGFR L858R/T790M (Homo sapiens, UniProt P00533, L858R/T790M); experiment: Inhibition of EGFR L858R/T790M biochemical enzymatic activity (HTRF); details: 1 mM ATP; for pIC50: EGFR L858R/T790M, 1 h at room temperature, read-out: IC50 @L858R-T790M
T3 construct: purchased Carna Bio
Method in brief: as §1

EGFR Exon19Del = target: T4, EGFR Exon19Del (Homo sapiens, UniProt P00533, DEL746-750); experiment: Inhibition of EGFR Exon19Del biochemical enzymatic activity (HTRF); details: read-out: IC50 @Del19
T4 construct: purchased Carna Bio
Method in brief: as §1

EGFR Exon19Del/T790M = target: T5, EGFR Exon19Del/T790M (Homo sapiens, UniProt P00533, DEL746-750/T790M); experiment: Inhibition of EGFR Exon19Del/T790M biochemical enzymatic activity (HTRF); details: 1 mM ATP; for pIC50: EGFR Exon19Del/T790M, 1 h at room temperature, read-out: IC50 @Del19-T790M
T5 construct: purchased Carna Bio
Method in brief: as §1

EGFR[T790M/C797S/L858R] = target: T6, EGFR[T790M/C797S/L858R] (Homo sapiens, UniProt P00533, C797S/L858R/T790M); experiment: Inhibition of EGFR[T790M/C797S/L858R] biochemical enzymatic activity (HTRF); details: 1 mM ATP; for pIC50: EGFR[T790M/C797S/L858R], 1 h at room temperature, read-out: IC50 @T790M- C797S - L858R
T6 construct: purchased Carna Bio
Method in brief: as §1

[1] = target: T7, EGFR[T790M/C797S/d746-750] (Homo sapiens, UniProt P00533, C797S/DEL746-750/T790M); experiment: Inhibition of EGFR[T790M/C797S/d746-750] biochemical enzymatic activity (HTRF); details: for pIC50: EGFR[T790M/C797S/d746-750], 1 mM ATP, 1 h at room temperature, read-out: IC50 @T790M - C797S - Del19
T7 construct: purchased Carna Bio
Method in brief: as §1

EGFR (d746-750 C797S) = target: T8, EGFR (d746-750 C797S) (Homo sapiens, UniProt P00533, C797S/DEL746-750); experiment: Inhibition of EGFR (d746-750 C797S) biochemical enzymatic activity (HTRF); details: 1 mM ATP; for pIC50: EGFR (d746-750 C797S), 1 h at room temperature, read-out: IC50 @Del19-C797S
T8 construct: purchased signalchem
Method in brief: as §1

EGFR (C797S L858R) = target: T9, EGFR (C797S L858R) (Homo sapiens, UniProt P00533, C797S/L858R); experiment: Inhibition of EGFR (C797S L858R) biochemical enzymatic activity (HTRF); details: 1 mM ATP; for pIC50: EGFR (C797S L858R), 1 h at room temperature, read-out: IC50 @L858-C797S
T9 construct: purchased signalchem
Method in brief: as §1

[2] = tested on: Ba/F3 cells expressing EGFR mutations; experiment: Cell proliferation assay, Ba/F3 cells expressing EGFR mutations (CellTiter-Glo, 72 hours); format: cell-based
Method in brief: (§2)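 GI50 is the concentration giving 50% proliferation inhibition. Growth for this was normalised to a baseline viability reading taken when compound was added, and to DMSO wells. PC-9 (500 cells/well) and mutant-EGFR Ba/F3 (5000 cells/well) are treated after overnight seeding in RPMI1640-based medium.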

PC-9 = experiment: Cell proliferation assay, PC-9 cells (CellTiter-Glo, 72 hours); format: cell-based; details: PC9 cells, read-out: GI50 PC9
Method in brief: as §2

A-431 = experiment: Cell proliferation assay, A-431 cells (GI50, Table 6); format: cell-based
Experimental: [Worded in the source for another cell line; this cell line is reported under the same test.] Ba/F3 cells expressing EGFR mutations were seeded in 384-well plates at 5000 cells/well in RPMI1640 medium containing […]. PC-9 at 500 cells/well was seeded into 384-well plates in RPMI1640 medium with 10% FBS. After overnight incubation, the assay plates were dosed with compounds at a series of concentrations. Alongside dosing the assay plates, the day 0 plate was processed using CellTiter-Glo® Luminescent Cell Viability Assay (Promega) to measure the number of viable cells (G0). The assay plates were further incubated for 72 hours and the number of viable cells (G3) was measured. The percentage of proliferation was calculated as: […]=100×(G3 value of sample well−G0 value)/(G3 value of DMSO control−G0 value). The concentration of compound producing 50% proliferation inhibition (GI50) was further calculated in best-fit curves using XLFit software. N/A=not available.

[3] = Mus musculus, BaF3, 72 h, BaF3 cells, EGFR DEL19 - C797S, read-out: GI50 DEL19 - C797S/BaF3
[4] = Mus musculus, BaF3, 72 h, BaF3 cells, EGFR DEL19 - T790-C797S, read-out: GI50 DEL19 - T790-C797S/BaF3
[5] = Mus musculus, BaF3, 72 h, BaF3 cells, EGFR L858R - C797S, read-out: GI50 L858R - C797S/BaF3
[6] = Mus musculus, BaF3, 72 h, BaF3 cells, EGFR L858R - T790-C797S, read-out: GI50 L858R - T790-C797S/BaF3
[7] = Mus musculus, BaF3, 72 h, BaF3 cells, EGFR L858R - T790M, read-out: GI50 L858R - T790M/BaF3
[8] = Mus musculus, BaF3, 72 h, BaF3 cells, EGFR L858R, read-out: GI50 L858R/BaF3
[9] = Mus musculus, BaF3, 72 h, EGFR DEL19 - T790M, read-out: GI50 DEL19 - T790M
[10] = Homo sapiens, A-431, A-431 cells
[11] = EGFR Exon19Del, 1 mM ATP, 1 h at room temperature

T3 sequence (P00533 25-1210 T790M/L858R): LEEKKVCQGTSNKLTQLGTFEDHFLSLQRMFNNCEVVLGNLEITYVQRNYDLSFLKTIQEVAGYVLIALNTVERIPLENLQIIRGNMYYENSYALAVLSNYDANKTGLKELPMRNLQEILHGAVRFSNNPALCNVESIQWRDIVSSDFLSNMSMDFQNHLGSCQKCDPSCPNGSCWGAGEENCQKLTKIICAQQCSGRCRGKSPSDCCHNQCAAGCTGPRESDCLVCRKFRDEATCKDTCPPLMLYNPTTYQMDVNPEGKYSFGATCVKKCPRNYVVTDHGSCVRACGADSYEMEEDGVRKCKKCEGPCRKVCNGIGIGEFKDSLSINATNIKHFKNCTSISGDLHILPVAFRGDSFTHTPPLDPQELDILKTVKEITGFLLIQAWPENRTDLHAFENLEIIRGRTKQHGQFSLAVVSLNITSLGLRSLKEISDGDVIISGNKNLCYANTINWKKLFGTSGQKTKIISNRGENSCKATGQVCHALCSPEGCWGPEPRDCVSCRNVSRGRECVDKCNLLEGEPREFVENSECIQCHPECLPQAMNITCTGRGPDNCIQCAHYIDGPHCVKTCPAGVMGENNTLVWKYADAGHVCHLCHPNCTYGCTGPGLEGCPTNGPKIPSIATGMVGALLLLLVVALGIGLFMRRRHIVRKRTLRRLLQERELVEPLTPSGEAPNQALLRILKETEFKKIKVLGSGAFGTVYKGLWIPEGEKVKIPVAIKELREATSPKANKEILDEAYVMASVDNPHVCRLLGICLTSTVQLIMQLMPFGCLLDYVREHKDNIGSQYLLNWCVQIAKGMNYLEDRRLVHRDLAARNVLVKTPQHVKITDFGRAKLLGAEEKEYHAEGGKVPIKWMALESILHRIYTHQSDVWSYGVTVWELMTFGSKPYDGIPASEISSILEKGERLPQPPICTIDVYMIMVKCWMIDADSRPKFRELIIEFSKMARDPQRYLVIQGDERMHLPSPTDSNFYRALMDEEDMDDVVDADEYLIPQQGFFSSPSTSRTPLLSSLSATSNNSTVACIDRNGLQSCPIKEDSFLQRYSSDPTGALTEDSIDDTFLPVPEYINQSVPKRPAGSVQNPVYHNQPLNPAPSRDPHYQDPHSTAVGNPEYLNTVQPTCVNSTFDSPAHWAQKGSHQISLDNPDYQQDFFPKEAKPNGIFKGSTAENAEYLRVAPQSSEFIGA
T2 sequence (P00533 25-1210 L858R): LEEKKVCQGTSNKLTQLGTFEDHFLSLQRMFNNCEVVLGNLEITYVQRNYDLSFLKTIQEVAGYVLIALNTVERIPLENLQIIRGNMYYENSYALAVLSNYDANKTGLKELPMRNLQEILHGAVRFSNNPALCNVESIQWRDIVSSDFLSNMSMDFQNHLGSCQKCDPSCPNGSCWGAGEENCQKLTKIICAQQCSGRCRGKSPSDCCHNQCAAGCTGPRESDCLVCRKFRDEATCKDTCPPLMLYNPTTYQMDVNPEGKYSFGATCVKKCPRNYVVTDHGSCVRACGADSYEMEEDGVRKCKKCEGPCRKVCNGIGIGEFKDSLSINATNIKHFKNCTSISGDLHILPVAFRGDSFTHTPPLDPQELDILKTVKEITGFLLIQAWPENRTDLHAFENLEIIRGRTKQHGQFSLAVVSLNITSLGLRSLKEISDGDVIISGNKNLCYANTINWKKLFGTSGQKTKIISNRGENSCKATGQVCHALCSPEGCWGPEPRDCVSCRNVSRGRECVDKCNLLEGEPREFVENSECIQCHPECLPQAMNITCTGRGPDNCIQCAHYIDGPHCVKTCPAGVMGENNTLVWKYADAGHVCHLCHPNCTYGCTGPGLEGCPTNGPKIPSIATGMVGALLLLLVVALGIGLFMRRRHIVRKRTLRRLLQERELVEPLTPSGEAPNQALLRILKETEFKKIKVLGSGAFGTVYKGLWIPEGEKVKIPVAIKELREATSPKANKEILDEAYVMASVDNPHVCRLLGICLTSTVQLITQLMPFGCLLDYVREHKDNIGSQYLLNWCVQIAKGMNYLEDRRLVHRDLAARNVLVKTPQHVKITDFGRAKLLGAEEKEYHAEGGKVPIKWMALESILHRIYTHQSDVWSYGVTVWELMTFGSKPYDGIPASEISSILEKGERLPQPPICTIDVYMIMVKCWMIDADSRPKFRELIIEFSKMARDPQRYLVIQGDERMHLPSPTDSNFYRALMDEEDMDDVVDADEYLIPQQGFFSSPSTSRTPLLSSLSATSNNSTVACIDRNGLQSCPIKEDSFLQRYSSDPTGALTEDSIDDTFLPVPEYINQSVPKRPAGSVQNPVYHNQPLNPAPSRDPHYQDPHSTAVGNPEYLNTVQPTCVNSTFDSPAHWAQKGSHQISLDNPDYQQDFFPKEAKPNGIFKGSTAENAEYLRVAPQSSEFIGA
T9 sequence (P00533 25-1210 C797S/L858R): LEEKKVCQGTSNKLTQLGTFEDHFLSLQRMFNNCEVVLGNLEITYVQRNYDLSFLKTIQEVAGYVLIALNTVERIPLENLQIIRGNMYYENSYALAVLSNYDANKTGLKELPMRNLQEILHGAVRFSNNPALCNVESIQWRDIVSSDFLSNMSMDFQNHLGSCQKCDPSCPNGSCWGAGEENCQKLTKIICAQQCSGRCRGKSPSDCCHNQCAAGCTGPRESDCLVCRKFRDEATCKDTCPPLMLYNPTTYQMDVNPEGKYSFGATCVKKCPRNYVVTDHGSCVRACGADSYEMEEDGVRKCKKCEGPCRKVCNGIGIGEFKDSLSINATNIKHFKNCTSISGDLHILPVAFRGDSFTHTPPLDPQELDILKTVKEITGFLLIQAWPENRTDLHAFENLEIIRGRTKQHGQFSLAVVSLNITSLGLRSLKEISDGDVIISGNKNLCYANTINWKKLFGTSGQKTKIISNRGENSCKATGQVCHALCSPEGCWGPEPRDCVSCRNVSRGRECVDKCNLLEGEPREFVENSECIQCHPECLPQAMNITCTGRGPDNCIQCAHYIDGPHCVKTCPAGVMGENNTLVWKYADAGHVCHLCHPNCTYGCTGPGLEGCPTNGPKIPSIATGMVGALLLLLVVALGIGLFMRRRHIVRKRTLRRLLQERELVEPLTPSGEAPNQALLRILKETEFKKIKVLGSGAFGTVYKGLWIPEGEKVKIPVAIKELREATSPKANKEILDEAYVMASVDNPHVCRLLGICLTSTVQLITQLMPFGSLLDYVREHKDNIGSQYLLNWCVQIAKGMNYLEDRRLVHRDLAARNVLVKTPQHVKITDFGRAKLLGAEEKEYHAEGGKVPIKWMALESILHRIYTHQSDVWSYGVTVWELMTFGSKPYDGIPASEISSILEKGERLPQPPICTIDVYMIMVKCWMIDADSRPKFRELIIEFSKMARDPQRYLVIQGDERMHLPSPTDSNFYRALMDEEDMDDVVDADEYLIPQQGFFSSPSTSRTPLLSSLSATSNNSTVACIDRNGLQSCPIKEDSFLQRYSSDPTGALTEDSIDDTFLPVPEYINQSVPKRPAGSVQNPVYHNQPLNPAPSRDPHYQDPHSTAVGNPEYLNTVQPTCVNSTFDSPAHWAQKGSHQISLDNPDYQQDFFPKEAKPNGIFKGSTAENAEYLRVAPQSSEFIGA
T4 sequence (P00533 with tags, fused parts or gaps DEL746-750 limits assumed): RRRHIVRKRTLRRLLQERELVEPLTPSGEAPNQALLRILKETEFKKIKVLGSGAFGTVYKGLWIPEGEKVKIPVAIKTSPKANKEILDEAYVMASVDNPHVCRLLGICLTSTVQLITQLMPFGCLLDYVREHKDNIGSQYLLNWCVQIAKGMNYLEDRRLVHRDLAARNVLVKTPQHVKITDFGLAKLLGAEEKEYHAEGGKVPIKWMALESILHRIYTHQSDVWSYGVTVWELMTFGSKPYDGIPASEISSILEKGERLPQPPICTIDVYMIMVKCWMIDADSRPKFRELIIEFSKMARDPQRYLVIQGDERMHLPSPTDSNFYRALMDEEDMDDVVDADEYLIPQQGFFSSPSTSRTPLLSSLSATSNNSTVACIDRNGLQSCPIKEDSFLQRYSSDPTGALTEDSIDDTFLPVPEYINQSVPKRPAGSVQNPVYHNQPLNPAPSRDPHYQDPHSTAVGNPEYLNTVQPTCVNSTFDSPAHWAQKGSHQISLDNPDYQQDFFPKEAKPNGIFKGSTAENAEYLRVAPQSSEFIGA
T8 sequence (P00533 with tags, fused parts or gaps DEL746-750/C797S limits assumed): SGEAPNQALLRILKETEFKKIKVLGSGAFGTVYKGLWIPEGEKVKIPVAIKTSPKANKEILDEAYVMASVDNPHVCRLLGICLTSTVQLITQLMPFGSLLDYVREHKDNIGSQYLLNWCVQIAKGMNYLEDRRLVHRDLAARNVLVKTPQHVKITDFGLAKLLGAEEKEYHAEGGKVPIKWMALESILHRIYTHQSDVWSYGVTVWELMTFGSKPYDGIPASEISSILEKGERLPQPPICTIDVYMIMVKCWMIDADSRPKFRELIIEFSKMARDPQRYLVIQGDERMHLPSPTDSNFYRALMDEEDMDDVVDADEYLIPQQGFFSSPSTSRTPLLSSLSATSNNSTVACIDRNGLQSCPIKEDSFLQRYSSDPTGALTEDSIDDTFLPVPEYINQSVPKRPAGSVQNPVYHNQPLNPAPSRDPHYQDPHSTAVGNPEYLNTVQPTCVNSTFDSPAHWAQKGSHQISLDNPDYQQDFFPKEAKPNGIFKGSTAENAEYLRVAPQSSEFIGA

Row | Compound | GI50 [2, 3] [nM] | GI50 [2, 4] [nM] | GI50 [2, 5] [nM] | GI50 [2, 6] [nM] | GI50 [2, 7] [nM] | GI50 [2, 8] [nM] | GI50 [2, 9] [nM] | GI50 (PC-9; Homo sapiens, PC-9, 72 h) [nM] | GI50 (A-431; [10]) [nM] | pIC50 (EGFR wild type) | pIC50 (EGFR L858R) | pIC50 (EGFR L858R/T790M) | pIC50 (EGFR Exon19Del; [11]) | pIC50 (EGFR Exon19Del/T790M) | pIC50 (EGFR[T790M/C797S/L858R]) | pIC50 [1] | pIC50 (EGFR (d746-750 C797S)) | pIC50 (EGFR (C797S L858R)) | further results
1 | Cn1ncc2c1OCCN1CC3CCC(C3)(C1)n1c(nc3cc(F)c(N4CCOCC4)cc31)NC(=O)c1cc-2c(=O)n(C)c1 (single isomer, unassigned) [Example A118B] | 0.68 | 4.1 | 8.2 | 6.7 | 19 | 3.8 | 1.8 | 16 | 1120 |  |  |  |  |  |  |  |  |  | IC50 (EGFR wild type; EGFR WT, 1 h, room temperature, read-out: IC50 (nM) @WT): 3640 nM; IC50 (EGFR L858R; 1 h, room temperature, read-out: IC50 (nM) @L858R): 110 nM; IC50 (EGFR L858R/T790M; EGFR L858R-T790M, 1 h, room temperature, read-out: IC50 (nM) @L858R-T790M): 61 nM; pIC50 (EGFR Exon19Del; EGFR Del19, 1 mM ATP, 1 h, room temperature): 8.06; IC50 (EGFR Exon19Del/T790M; EGFR Del19-T790M, 1 h, room temperature, read-out: IC50 (nM) @Del19-T790M): 7.4 nM; IC50 (EGFR[T790M/C797S/L858R]; EGFR T790M-C797S-L858R, 1 h, room temperature, read-out: IC50 (nM) @T790M- C797S - L858R): 11 nM; IC50 ([1]; EGFR T790M-C797S-Del19, 1 mM ATP, 1 h, room temperature, read-out: IC50 (nM) @T790M - C797S - Del19): 2.9 nM; IC50 (EGFR (d746-750 C797S); EGFR Del19-C797S, 1 h, room temperature, read-out: IC50 (nM) @Del19-C797S): 3.2 nM; IC50 (EGFR (C797S L858R); EGFR L858-C797S, 1 h, room temperature, read-out: IC50 (nM) @L858-C797S): 37 nM
2 | Cc1cc2cc(n1)-c1cnn(C)c1OCCN1CC3CCC(C3)(C1)n1c(nc3ccccc31)NC2=O (single isomer, unassigned) [Example B8A, 15,21-dimethyl-23-oxa-2,9,11,16,20,21,26-heptaazaheptacyclo[24.4.1.1^{1,28}.1^{13,17}.0^{2,10}.0^{3,8}.0^{18,22}]tritriaconta-3,5,7,9,13,15,17(33),18(22),19-nonaen-12-one] | 620 | 251 | 2120 | 290 | 1170 | 3560 | 298 | 2850 | 6390 | < 5.30 | < 5.30 | < 5.30 | 6.14 | 5.40 | < 5.30 | 5.40 | 6.18 | < 5.30 | 
3 | Cc1cc2cc(n1)-c1cnn(C)c1OCCN1CC3CCC(C3)(C1)n1c(nc3ccc(N4CCOCC4)cc31)NC2=O (single isomer, unassigned) [Example B10A, 15,21-Dimethyl-5-(morpholin-4-yl)-23-oxa-2,9,11,16,20,21,26-heptaazaheptacyclo[24.4.1.1^{1,28}.1^{13,17}.0^{2,10}.0^{3,8}.0^{18,22}]tritriaconta-3,5,7,9,13,15,17(33),18(22),19-nonaen-12-one] |  |  |  |  |  |  |  |  |  | 5.47 | 6.67 | 8.59 | 8.34 | 8.55 | 8.59 | 8.66 | 8.64 | 7.23 | GI50 ([2]; BaF3 cells, EGFR DEL19 - C797S, read-out: GI50 DEL19 - C797S/BaF3): 0.79 nM; GI50 ([2]; BaF3 cells, EGFR DEL19 - T790-C797S, read-out: GI50 DEL19 - T790-C797S/BaF3): 0.84 nM; GI50 ([2]; BaF3 cells, EGFR L858R - C797S, read-out: GI50 L858R - C797S/BaF3): 18 nM; GI50 ([2]; BaF3 cells, EGFR L858R - T790-C797S, read-out: GI50 L858R - T790-C797S/BaF3): 0.91 nM; GI50 ([2]; BaF3 cells, EGFR L858R - T790M, read-out: GI50 L858R - T790M/BaF3): 2.1 nM; GI50 ([2]; BaF3 cells, EGFR L858R, read-out: GI50 L858R/BaF3): 24 nM; GI50 ([2]; EGFR DEL19 - T790M, read-out: GI50 DEL19 - T790M): 0.89 nM; GI50 (PC-9): 41 nM; GI50 (A-431; A-431 cells): 1730 nM
